According to ChEMBL document CHEMBL1125127 (J Med Chem, 1990):
Values belong to the compound of their own block, whether it stands above or below them.

Legend:
[1] = target: Beta-2 adrenergic receptor (Canis lupus familiaris, UniProt P54833); test: Beta2-receptor selectivity in canine lung tissue in anesthetized dogs; format: functional
Canis familiaris [2] = test: Concentration that causes a 20% increase in APD95 (action potential duration at 95% repolarization) from control value in anesthetized dogs; format: functional, Canis lupus familiaris
Canis familiaris [3] = test: Maximum change in […] from control value in anesthetized dogs; 10 uM.; format: functional, Canis lupus familiaris
Canis familiaris [4] = test: Percent change in FRP from control at active dose 1.0-10 mg/kg administered intravenously
Canis familiaris [5] = test: Percent change in heart rate (HR) from control at active dose 1.0-10 mg/kg administered intravenously in conscious dogs
Canis familiaris [6] = test: Percent change in blood pressure (BP) from control at active dose 1.0-10 mg/kg administered intravenously in anesthetized dogs
Canis familiaris [7] = test: Concentration at which maximum change in […] was observed from control value in anesthetized dogs; The maximum observed change APD95 from control value and concentration at 100 uM when this occurred; format: functional, Canis lupus familiaris
Canis familiaris [8] = test: Percent change in blood pressure (BP) from control at active dose 1.0-10 mg/kg administered intraperitoneally in anesthetized dogs; format: functional, Canis lupus familiaris
Canis familiaris [9] = test: Percent change in blood pressure (BP) from control at active dose 30 mg/kg administered intraperitoneally in anesthetized dogs; format: functional, Canis lupus familiaris; settings: route intraperitoneal
Canis familiaris [10] = test: Percent change in heart rate (HR) from control at active dose 1.0-10 mg/kg administered intraperitoneally in anesthetized dogs; format: functional, Canis lupus familiaris
Canis familiaris [11] = test: Percent change in FRP from control at active dose 1.0-10 mg/kg administered intraperitoneally; format: functional, Canis lupus familiaris
[12] = Ratio of number of active animals to number of treated at dose 30 mg/kg administered intraperitoneally in anesthetized dogs; No of animals tested=2; format: functional; settings: route intraperitoneal
[13] = (§1) Percent change in FRP from control at active dose 30 mg/kg administered intraperitoneally in anesthetized dogs; format: functional; settings: route intraperitoneal
[14] = target: Beta adrenergic receptor (Canis familiaris)
Canis familiaris [15] = test: Percent change in heart rate (HR) from control at active dose 30 mg/kg administered intraduodenally; settings: route intraduodenal
Canis familiaris [16] = test: Percent change in FRP from control at active dose 10 mg/kg administered intraperitoneally in anesthetized dogs; format: functional, Canis lupus familiaris; settings: route intraperitoneal
Canis familiaris [17] = test: Percent change in blood pressure (BP) from control at active dose 0.1-10 mg/kg administered intraperitoneally in anesthetized dogs; format: functional, Canis lupus familiaris
Canis familiaris [18] = test: Percent change in blood pressure (BP) from control at active dose 10 mg/kg administered intraperitoneally in anesthetized dogs; format: functional, Canis lupus familiaris; settings: route intraperitoneal
Canis familiaris [19] = test: Percent change in heart rate (HR) from control at active dose 0.1-10 mg/kg administered intraperitoneally in anesthetized dogs; format: functional, Canis lupus familiaris
Canis familiaris [20] = test: Percent change in FRP from control at active dose 0.1-10 mg/kg administered intravenously
Canis familiaris [21] = test: Percent change in heart rate (HR) from control at active dose 10 mg/kg administered intraduodenally; settings: route intraduodenal
Canis familiaris [22] = test: Concentration at which maximum change in […] was observed from control value in anesthetized dogs; The maximum observed change APD95 from control value and concentration at 30 uM when this occurred; format: functional, Canis lupus familiaris
Canis familiaris [23] = test: Percent change in blood pressure (BP) from control at active dose 22-30 mg/kg administered intraperitoneally in anesthetized dogs; format: functional, Canis lupus familiaris
[24] = Ratio of number of active animals to number of treated at dose 22-30 mg/kg administered intraperitoneally in anesthetized dogs; No of animals tested=2; format: functional
Canis familiaris [25] = test: Percent change in heart rate (HR) from control at active dose 22-30 mg/kg administered intraduodenally
Canis familiaris [26] = test: Percent change in FRP from control at active dose 22-30 mg/kg administered intraduodenally in anesthetized dogs
Canis familiaris [27] = test: Percent change in blood pressure (BP) from control at active dose 0.3-3 mg/kg administered intraperitoneally in anesthetized dogs; format: functional, Canis lupus familiaris
Canis familiaris [28] = test: Percent change in FRP from control at active dose 0.3-3 mg/kg administered intravenously
Canis familiaris [29] = test: Percent change in heart rate (HR) from control at active dose 1.0-10 mg/kg administered intraduodenally
Canis familiaris [30] = test: Percent change in FRP from control at active dose 1.0-10 mg/kg administered intraduodenally in anesthetized dogs
Canis familiaris [31] = test: Percent change in heart rate (HR) from control at active dose 0.3-3 mg/kg administered intravenously in conscious dogs
Canis familiaris [32] = test: Percent change in heart rate (HR) from control at active dose 30 mg/kg administered intraperitoneally; format: functional, Canis lupus familiaris; settings: route intraperitoneal
Canis familiaris [33] = test: as §1; format: functional, Canis lupus familiaris; settings: route intraperitoneal
Canis familiaris [34] = test: Percent change in blood pressure (BP) from control at active dose 0.1-3.0 mg/kg administered intraperitoneally in anesthetized dogs; format: functional, Canis lupus familiaris
Canis familiaris [35] = test: Percent change in FRP from control at active dose 0.1-3.0 mg/kg administered intravenously
Canis familiaris [36] = test: Percent change in heart rate (HR) from control at active dose 0.1-3.0 mg/kg administered intravenously in conscious dogs

Beta-2 adrenergic receptor, sequence (P54833 whole entry): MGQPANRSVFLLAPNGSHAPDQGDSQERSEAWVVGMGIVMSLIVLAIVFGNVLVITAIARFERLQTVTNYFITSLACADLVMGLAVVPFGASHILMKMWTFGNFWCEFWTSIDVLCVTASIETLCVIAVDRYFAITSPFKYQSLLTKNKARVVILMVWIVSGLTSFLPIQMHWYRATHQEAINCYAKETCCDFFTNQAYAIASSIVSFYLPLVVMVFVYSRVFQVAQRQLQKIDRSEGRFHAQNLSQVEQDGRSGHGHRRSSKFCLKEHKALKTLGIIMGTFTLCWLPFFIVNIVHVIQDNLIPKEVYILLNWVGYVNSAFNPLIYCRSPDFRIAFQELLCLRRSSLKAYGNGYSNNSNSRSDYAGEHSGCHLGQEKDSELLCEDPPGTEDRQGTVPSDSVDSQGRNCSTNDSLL

SMILES: O=C(NCCNCC(O)COc1cccc2ccccc12)c1ccc(-n2ccnc2)cc1 (stereo unspecified)
- C20 (Canis familiaris [2]): 1.8 µM
- Max delta (Canis familiaris [7]): 57%
- Change (Canis familiaris [8]): -5%
- Change (Canis familiaris [9]): 16%
- Change (Canis familiaris [10]): 24%
- Change (Canis familiaris [11]): 6%
- Ratio [12]: 2
- Change [13]: 13%
- IC50 [14]: 0.42 µM
- Change (Canis familiaris [15]): -15%

SMILES: CS(=O)(=O)Nc1ccc(C(O)CNCCOc2ccc(-n3ccnc3)cc2)cc1 (stereo unspecified)
- IC50 [1]: 5.7 µM
- Change (Canis familiaris [16]): 24%
- C20 APD95 (Canis familiaris [2]): <1 µM
- Max delta (Canis familiaris [7]): 155%
- Change (Canis familiaris [17]): -4%
- Change (Canis familiaris [18]): 17%
- Change (Canis familiaris [19]): 1%
- Change (Canis familiaris [20]): 15%
- Change (Canis familiaris [21]): -18%

SMILES: CS(=O)(=O)Nc1ccc(N2CCN(CC(O)CON=C(C3CC3)C3CC3)CC2)cc1 (stereo unspecified)
- Change (Canis familiaris [32]): -17%
- C20 (Canis familiaris [2]): 8 µM
- Max delta (Canis familiaris [22]): 45%
- Change (Canis familiaris [33]): 15%
- Change (Canis familiaris [8]): 8%
- Change (Canis familiaris [9]): 17%
- Change (Canis familiaris [10]): 9%
- Change (Canis familiaris [11]): 6%
- Ratio [12]: 1

Continued, in another order:

- IC50 [1]: 0.51 µM
SMILES: Cc1cccc(OCC(O)CNCCOc2ccc(-n3ccnc3)cc2)c1 (stereo unspecified)
- C20 APD95 (Canis familiaris [2]): 10 µM
- Max delta (Canis familiaris [3]): 35%
- Change (Canis familiaris [4]): 9%
- Change (Canis familiaris [5]): -12%
- Change (Canis familiaris [6]): -4%

- IC50 [14]: 61.4 µM
SMILES: COc1ccc(OCC(O)CNCCNC(=O)c2ccc(-n3ccnc3)cc2)cc1 (stereo unspecified)
- C20 (Canis familiaris [2]): 6.6 µM
- Max delta (Canis familiaris [22]): 47%
- Change (Canis familiaris [23]): -1%
- No. effective [24]: 2
- Change (Canis familiaris [25]): -35%
- Change (Canis familiaris [26]): 24%

- IC50 [1]: 46.5 µM
SMILES: CS(=O)(=O)Nc1ccc(OC[C@@H](O)CNCCOc2ccc(-n3ccnc3)cc2)cc1 (stereo in doubt; 1) [ERSENTILIDE]
- C20 APD95 (Canis familiaris [2]): 0.4 µM
- Max delta (Canis familiaris [22]): 92%
- Change (Canis familiaris [27]): 3%
- Change (Canis familiaris [8]): 3%
- Change (Canis familiaris [28]): 13%
- Change (Canis familiaris [29]): -16%
- Change (Canis familiaris [30]): 27%
- Change (Canis familiaris [31]): 9%

- IC50 [1]: 50 µM
SMILES: CS(=O)(=O)Nc1ccc(OC[C@@H](O)CNCCOc2ccc(-n3ccnc3)cc2)cc1 (stereo in doubt; (S)-1) [ERSENTILIDE]
- C20 APD95 (Canis familiaris [2]): 1.8 µM
- Max delta (Canis familiaris [22]): 73%
- Change (Canis familiaris [34]): 4%
- Change (Canis familiaris [35]): 5%
- Change (Canis familiaris [36]): -2%
